In PubChem BioAssay AID1963974 (Molecular Pharmacology Branch, DTP, NCI, 2024):
pIC50: −log10 of the molar value.

Test system: 648629-189-R-J1-PDC spheroids with HUVEC/MSC, viability
Assay: Anticancer human tumor 648629-189-R-J1-PDC patient-derived bladder carcinoma cell line growth inhibition [PI3K]
Conditions: for viability, T/C: stronger effect = lower value
Source text: Combinatorial screen of targeted agents with the PI3K inhibitors inavolisib, alpelisib, duvelisib, and copanlisib in multi-cell type tumor spheroids
A high-throughput screen of multi-cell type tumor spheroids was designed to identify active combinations of targeted small molecules and PI3K pathway inhibitors. Complex spheroids include a stromal component modeled by human endothelial cells (HUVEC) and fibroblasts modeled by human mesenchymal stem cells (MSCs). The concentration ranges selected for each drug and investigational agent were based upon clinically achievable concentrations if the clinical Cmax of the agent was known.
Compounds. The drugs and investigational agents: inavolisib (NSC800729), alpelisib (NSC765974), duvelisib (NSC772469), copanlisib (NSC816437), ipatasertib (NSC767898), afuresertib (NSC778305), talazoparib (NSC767125), sapanisertib (NSC764658), selumetinib (NSC741078), tovorafenib (DAY101, NSC766906), vemurafenib (NSC761431), ravoxertinib (NSC781343), sotorasib (NSC818433), MRTX1133 (NSC 836407), abemaciclib (NSC 768073), palbociclib (NSC758247), venetoclax (NSC 766270), SY5609 (NSC837396), enzalutamide (NSC755605), and darolutamide (NSC825331), were obtained from the National Cancer Institute (NCI) Developmental Therapeutics Program Chemical Repository. The FDA-approved anticancer drug set is available from the NCI Developmental Therapeutics Program. […] The stock solutions were prepared in dimethyl sulfoxide (DMSO, Sigma-Aldrich, St. Louis, MO, cat. D2650) at 800-fold the tested concentration and stored at -70 degrees C prior to their use. All drugs and investigational agents were tested over a range starting from a high concentration at or near the clinical Cmax and decreasing in half-log increments. If the clinical Cmax for an agent had not been determined, the highest concentration tested was 10 microM.
Cell Culture. All cells were maintained in an incubator at 37 degrees C and 5% CO2 with 95% humidity. The PDC lines were cultured according to standard operating procedures established by the NCI PDMR (https://pdmr.cancer.gov/sops/default.htm). All PDCs were thawed and cultured in Matrigel-coated flasks prepared with a working solution of 1X Ham's F-12 nutrient mix, without supplementation (Invitrogen, Waltham, MA, cat. 11765054), 100 U/mL penicillin-streptomycin (Invitrogen, cat. 15140122), and 2.5% Matrigel (Corning Inc., Corning, NY, cat. 354248) for the first three passages. The 354836-022-R-J1-PDC, 475296-252-R-J1-PDC, and 997726-040-R-J2-PDC lines were cultured in 6A media, which includes advanced DMEM/F-12 (Thermo Fisher Scientific, cat. 12634028), 10 mM HEPES (Thermo Fisher Scientific, cat. 15630080), 1X GlutaMAX supplement (Thermo Fisher Scientific, cat. 35050061), 0.1 mg/mL primocin (InvivoGen, San Diego, CA, cat. ant-pm-2), 10% defined fetal bovine serum, heat inactivated (HyClone Laboratories Inc., Logan, UT, cat. SH30070.03HI), 50% L-WRN conditioned media (ATCC, cat. CRL-3276), 1.25 mM N-Acetyl-L-cysteine (Sigma-Aldrich, cat. A9165), 10 mM nicotinamide (Sigma-Aldrich, cat. N0636), 1X B-27 supplement (Thermo Fisher Scientific, cat. 17504044), 1X N-2 supplement (Thermo Fisher Scientific, cat. 17502048), and 10 microM Y-27632 dihydrochloride (Tocris Bioscience, Bristol, United Kingdom, cat. 1254). The 624824-186-R-J2-PDC line was cultured in 6C/Colon 1B media, which includes all 6A media components plus 50 ng/mL human EGF recombinant protein (Thermo Fisher Scientific, cat. PHG0311). […]

[1] = curve of first compound, second compound 0.0316 µM
[2] = curve of first compound, second compound 0.1 µM
[3] = curve of first compound, second compound 0.316 µM
[4] = curve of first compound, second compound 1 µM
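Also: spheroids exposed to agents for seven days before reading.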
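For viability, T/C in this document: percent of vehicle control luminescence where 100% = DMSO treated spheroids.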

Question: Which results are given for Cn1cnc2c(F)c(Nc3ccc(Br)cc3Cl)c(C(=O)NOCCO)cc21 + COc1c(OCCCN2CCOCC2)ccc2c3n(c(=NC(=O)c4cnc(N)nc4)nc12)CCN3?
Answer: pIC50 (curve of first compound, second compound 0.00316 µM): < 5.52; pIC50 (curve of first compound, second compound 0.01 µM): < 5.52; pIC50 [1]: < 5.52; pIC50 [2]: < 5.52; pIC50 [3]: > 8.02; pIC50 [4]: > 8.02; viability, T/C (second compound 0.00316 µM, first compound 0.00949 µM): 121%; viability, T/C (second compound 0.00316 µM, first compound 0.03 µM): 82.1%; viability, T/C (second compound 0.00316 µM, first compound 0.0949 µM): 101%; viability, T/C (second compound 0.00316 µM, first compound 0.3 µM): 83.6%; viability, T/C (second compound 0.00316 µM, first compound 0.949 µM): 96.6%; viability, T/C (second compound 0.00316 µM, first compound 3 µM): 92.3%; viability, T/C (second compound 0.01 µM, first compound 0.00949 µM): 103%; viability, T/C (second compound 0.01 µM, first compound 0.03 µM): 90.2%; viability, T/C (second compound 0.01 µM, first compound 0.0949 µM): 99.2%; viability, T/C (second compound 0.01 µM, first compound 0.3 µM): 89.3%; viability, T/C (second compound 0.01 µM, first compound 0.949 µM): 90.5%; viability, T/C (second compound 0.01 µM, first compound 3 µM): 92.7%; viability, T/C (second compound 0.0316 µM, first compound 0.00949 µM): 90%; viability, T/C (second compound 0.0316 µM, first compound 0.03 µM): 93.8%; viability, T/C (second compound 0.0316 µM, first compound 0.0949 µM): 102%; viability, T/C (second compound 0.0316 µM, first compound 0.3 µM): 87%; viability, T/C (second compound 0.0316 µM, first compound 0.949 µM): 80.8%; viability, T/C (second compound 0.0316 µM, first compound 3 µM): 78.6%; viability, T/C (second compound 0.1 µM, first compound 0.00949 µM): 62.4%; viability, T/C (second compound 0.1 µM, first compound 0.03 µM): 59.3%; viability, T/C (second compound 0.1 µM, first compound 0.0949 µM): 59%; viability, T/C (second compound 0.1 µM, first compound 0.3 µM): 73.5%; viability, T/C (second compound 0.1 µM, first compound 0.949 µM): 64.4%; viability, T/C (second compound 0.1 µM, first compound 3 µM): 59.4%; viability, T/C (second compound 0.316 µM, first compound 0.00949 µM): 20.6%; viability, T/C (second compound 0.316 µM, first compound 0.03 µM): 25.5%; viability, T/C (second compound 0.316 µM, first compound 0.0949 µM): 24.7%; viability, T/C (second compound 0.316 µM, first compound 0.3 µM): 28%; viability, T/C (second compound 0.316 µM, first compound 0.949 µM): 33.7%; viability, T/C (second compound 0.316 µM, first compound 3 µM): 32.3%; viability, T/C (second compound 1 µM, first compound 0.00949 µM): 3.08%; viability, T/C (second compound 1 µM, first compound 0.03 µM): 3.98%; viability, T/C (second compound 1 µM, first compound 0.0949 µM): 2.82%; viability, T/C (second compound 1 µM, first compound 0.3 µM): 3.55%; viability, T/C (second compound 1 µM, first compound 0.949 µM): 2.39%; viability, T/C (second compound 1 µM, first compound 3 µM): 1.24%

Question: How did the pIC50 [1] turn out when C[C@@H](NC(=O)c1ncnc(N)c1Cl)c1ncc(C(=O)Nc2cc(C(F)(F)F)c(Cl)cn2)s1 + Cc1nc(NC(=O)N2CCCC2C(N)=O)sc1-c1ccnc(C(C)(C)C(F)(F)F)c1 was run?
Answer: < 5.00

Question: What about the pIC50 [2] of the same molecule?
Answer: < 5.00

Question: What about the pIC50 [3] of the same molecule?
Answer: < 5.00

Question: What about the pIC50 [4] of the same molecule?
Answer: < 5.00

Question: What about the pIC50 (curve of first compound, second compound 3.16 µM) of the same molecule?
Answer: < 5.00

Question: And the pIC50 (curve of first compound, second compound 10 µM)?
Answer: > 7.50

Question: What about the viability, T/C (second compound 0.0316 µM, first compound 0.0316 µM) of the same molecule?
Answer: 101%

Question: What about the viability, T/C (second compound 0.0316 µM, first compound 0.1 µM) of the same molecule?
Answer: 93.8%

Question: And the viability, T/C (second compound 0.0316 µM, first compound 0.316 µM)?
Answer: 98.8%

Question: What about the viability, T/C (second compound 0.0316 µM, first compound 1 µM) of the same molecule?
Answer: 116%

Question: What about the viability, T/C (second compound 0.0316 µM, first compound 3.16 µM) of the same molecule?
Answer: 107%

Question: What about the viability, T/C (second compound 0.0316 µM, first compound 10 µM) of the same molecule?
Answer: 106%

Question: What about the viability, T/C (second compound 0.1 µM, first compound 0.0316 µM) of the same molecule?
Answer: 107%

Question: What about the viability, T/C (second compound 0.1 µM, first compound 0.1 µM) of the same molecule?
Answer: 92.4%

Question: What about the viability, T/C (second compound 0.1 µM, first compound 0.316 µM) of the same molecule?
Answer: 95.4%

Question: What about the viability, T/C (second compound 0.1 µM, first compound 1 µM) of the same molecule?
Answer: 108%

Question: What about the viability, T/C (second compound 0.1 µM, first compound 3.16 µM) of the same molecule?
Answer: 120%

Question: And the viability, T/C (second compound 0.1 µM, first compound 10 µM)?
Answer: 118%

Question: What about the viability, T/C (second compound 0.316 µM, first compound 0.0316 µM) of the same molecule?
Answer: 81.2%

Question: What about the viability, T/C (second compound 0.316 µM, first compound 0.1 µM) of the same molecule?
Answer: 101%

Question: What about the viability, T/C (second compound 0.316 µM, first compound 0.316 µM) of the same molecule?
Answer: 83.4%

Question: What about the viability, T/C (second compound 0.316 µM, first compound 1 µM) of the same molecule?
Answer: 93%

Question: And the viability, T/C (second compound 0.316 µM, first compound 3.16 µM)?
Answer: 90.9%

Question: And the viability, T/C (second compound 0.316 µM, first compound 10 µM)?
Answer: 94.5%

Question: What about the viability, T/C (second compound 1 µM, first compound 0.0316 µM) of the same molecule?
Answer: 74%

Question: What about the viability, T/C (second compound 1 µM, first compound 0.1 µM) of the same molecule?
Answer: 73.2%

Question: And the viability, T/C (second compound 1 µM, first compound 0.316 µM)?
Answer: 78%

Question: What about the viability, T/C (second compound 1 µM, first compound 1 µM) of the same molecule?
Answer: 77.9%

Question: What about the viability, T/C (second compound 1 µM, first compound 3.16 µM) of the same molecule?
Answer: 88.7%

Question: What about the viability, T/C (second compound 1 µM, first compound 10 µM) of the same molecule?
Answer: 82.6%

Question: What about the viability, T/C (second compound 3.16 µM, first compound 0.0316 µM) of the same molecule?
Answer: 53.3%

Question: What about the viability, T/C (second compound 3.16 µM, first compound 0.1 µM) of the same molecule?
Answer: 56.6%

Question: What about the viability, T/C (second compound 3.16 µM, first compound 0.316 µM) of the same molecule?
Answer: 59%

Question: And the viability, T/C (second compound 3.16 µM, first compound 1 µM)?
Answer: 55%

Question: What about the viability, T/C (second compound 3.16 µM, first compound 3.16 µM) of the same molecule?
Answer: 66%

Question: And the viability, T/C (second compound 3.16 µM, first compound 10 µM)?
Answer: 54.7%

Question: And the viability, T/C (second compound 10 µM, first compound 0.0316 µM)?
Answer: 40.2%

Question: And the viability, T/C (second compound 10 µM, first compound 0.1 µM)?
Answer: 35.4%

Question: What about the viability, T/C (second compound 10 µM, first compound 0.316 µM) of the same molecule?
Answer: 39.2%

Question: What about the viability, T/C (second compound 10 µM, first compound 1 µM) of the same molecule?
Answer: 36%

Question: What about the viability, T/C (second compound 10 µM, first compound 3.16 µM) of the same molecule?
Answer: 36.6%

Question: What about the viability, T/C (second compound 10 µM, first compound 10 µM) of the same molecule?
Answer: 42.7%

Question: How did the viability, T/C (compound 0.0316 µM) turn out when CC(Nc1ncnc2nc[nH]c12)c1cc2cccc(Cl)c2c(=O)n1-c1ccccc1 (stereo not drawn) was run?
Answer: 104% [middle of 8 runs]

Question: What about the viability, T/C (compound 0.1 µM) of the same molecule?
Answer: 104% [middle of 8 runs]

Question: What about the viability, T/C (compound 0.316 µM) of the same molecule?
Answer: 103% [middle of 8 runs]

Question: And the viability, T/C (compound 1 µM)?
Answer: 97.5% [middle of 8 runs]

Question: And the viability, T/C (compound 3.16 µM)?
Answer: 97.1% [middle of 8 runs]

Question: And the viability, T/C (compound 10 µM)?
Answer: 90.1% [middle of 8 runs]

Question: What about the pIC50 (compound alone, run of 04/25/2023) of the same molecule?
Answer: < 5.00

Question: With CC(=O)c1c(C)c2cnc(Nc3ccc(N4CCNCC4)cn3)nc2n(C2CCCC2)c1=O as the molecule, how does the viability, T/C (compound 0.000316 µM) read?
Answer: 101% [middle of 4 runs]

Question: What about the viability, T/C (compound 0.001 µM) of the same molecule?
Answer: 102% [middle of 4 runs]

Question: What about the viability, T/C (compound 0.00316 µM) of the same molecule?
Answer: 115% [middle of 4 runs]

Question: What about the viability, T/C (compound 0.01 µM) of the same molecule?
Answer: 97.2% [middle of 4 runs]

Question: What about the viability, T/C (compound 0.0316 µM) of the same molecule?
Answer: 100% [middle of 4 runs]

Question: What about the viability, T/C (compound 0.1 µM) of the same molecule?
Answer: 111% [middle of 4 runs]

Question: What about the pIC50 (curve of compound) of the same molecule?
Answer: < 7.00
